# Values joined by “and” are separate entries in the source; they are usually repeats but may differ in a detail not shown here. Equal entries are not always repeated.
# Assays:
# [1] = Pharmacokinetics in whole blood, CD-1 mice; conditions: CD-1 mice, individual animals; for concentration at 0.083 hr / concentration at 0.333 h / concentration at 0.5 h / concentration at 1 h / concentration at 4 h: male, CD-1, mouse, in vivo, po, Compound 1 Whole Blood Conc.; for concentration at 0.5 h / concentration at 1 h: 300 mg/kg, 300 mg/kg RE-024-02 by PO
# Method: (§1) The whole blood samples (0.5 mL) were collected into syringes that were prefilled with 2.5 mL of ice-cold 0.1% formic acid in acetonitrile. The volume ratio of the whole blood to 0.1% formic acid in acetonitrile was 1/5 (v/v). Samples were frozen (-70°C) until analyzed by LC-MS/MS.
# (§2) Standard curves and quality control (QC) samples were prepared fresh on the day of analysis by serial dilution of the standard mixture in quenched whole blood (1 part of blood to 5 parts of 0.1% formic acid in acetonitrile) and centrifuged. […] The frozen study samples were thawed in an ice/water bath and centrifuged. Supernatant (50 μL) from standards, QC samples, and study samples was transferred to a 96-well plate and dried completely under nitrogen. The dried residues were reconstituted with 100 μL of 0.1% formic acid in water containing internal standard (5 ng/mL of ^15N/^13C3-RE-024-02) and analyzed by LC-MS/MS.
# (§3) LC-MS/MS analysis for blood pharmacokinetic samples: Samples were analyzed using an Agilent 1100 binary pump (Agilent Technologies, Santa Clara, CA, USA), connected to an AB Sciex API 6500 mass spectrometer (SCIEX, Framingham, MA, USA). An electrospray ionization source was used, scanning in the positive mode. […] The chromatography column was a Varian Metasil AQ 120–5 C18 column, 5 μm, 50 x 2.00 mm (Part No. A0530050X020) at ambient temperature, with a 0.5 mL/min flow rate and a 20 μL injection volume. Mobile phase (A) consisted of 0.1% formic acid in water; while mobile phase (B) consisted of 0.1% formic acid in acetonitrile:water (9:1, v/v).
# (§4) Quantitation of in vivo samples: Peak areas were integrated using Analyst software (AB Sciex, Concord, Ontario, Canada). […] Calibration standards (at a minimum 7 per curve) were fit by linear regression with (1/x^2) weighting. QC samples were used (triplicate) at 3 concentrations for all tandem mass spectrometry (MS/MS) runs.
# (§5) Pharmacokinetic calculations: PK analysis was performed using Phoenix WinNonlin®, Build 6.3.0.395 (Certara, Princeton, NJ, USA) using a non-compartmental model (PO dose = model 200 for extravascular dosing). […] Post-dose concentrations below the limit of quantitation (BLQ) were omitted from calculation.
# [2] = Pharmacokinetics in whole blood, cynomolgus monkeys
# Method: as §1, §2, §3, §4, §5
# [3] = Pharmacokinetics in whole blood, Sprague-Dawley rats; conditions: for % Parent AUCAll: Sprague-Dawley rat, metabolite AUCall/Parent AUCall x 100; for Whole Blood Conc. of compound 1: Sprague-Dawley rats; for concentration at 0.167 h / concentration at 0.33 h: Sprague-Dawley, rat, in vivo, po, Whole Blood Conc. of compound 1, Sprague-Dawley rats
# Method: as §1, §2, §3, §4, §5
# [4] = 100 mg/kg, 100 mg/kg RE-024-02 by PO, LLOQ 0.6 ng/mL
# [5] = 100 mg/kg, 100 mg/kg RE-024-02 by PO, LLOQ 1.6 nM
smiles,measurement,setting,value
COC(=O)CCNC(=O)[C@@H]1OP(=O)(N[C@@H](C)C(=O)OC)OCC1(C)C (some centres unmarked) [Compound 1],Compound 1 Whole Blood Conc.,"[1]; 700 mg/kg RE-024-02 by PO, 4 hr, LLOQ 0.6 ng/mL, 700 mg/kg",BQL
same,Compound 1 Whole Blood Conc.,"[1]; 700 mg/kg RE-024-02 by PO, 4 hr, LLOQ 1.6 nM, 700 mg/kg",BQL
same,Compound 1 Whole Blood Conc.,"[1]; 700 mg/kg RE-024-02 by PO, 8 hr, LLOQ 0.6 ng/mL",BQL
same,Compound 1 Whole Blood Conc.,"[1]; 700 mg/kg RE-024-02 by PO, 8 hr, LLOQ 1.6 nM",BQL
same,concentration at 0.083 hr,[1]; [4],1.4 ng/mL
same,concentration at 0.083 hr,[1]; [5],3.8 nM
same,concentration at 0.333 h,[1]; [4],0.8 ng/mL
same,concentration at 0.333 h,[1]; [5],2 nM
same,concentration at 0.5 h,[1]; LLOQ 0.6 ng/mL,5 ng/mL
same,concentration at 0.5 h,[1]; LLOQ 1.6 nM,13.1 nM
same,concentration at 1 h,[1]; LLOQ 0.6 ng/mL,0.8 ng/mL
same,concentration at 1 h,[1]; LLOQ 1.6 nM,2.1 nM
same,concentration at 0.333 h,"[1]; 700 mg/kg, 700 mg/kg RE-024-02 by PO, LLOQ 0.6 ng/mL",109 ng/mL
same,concentration at 0.333 h,"[1]; 700 mg/kg, 700 mg/kg RE-024-02 by PO, LLOQ 1.6 nM",286 nM
same,concentration at 4 h,"[1]; 700 mg/kg, 700 mg/kg RE-024-02 by PO, 4 hr, LLOQ 0.6 ng/mL",0.8 ng/mL
same,concentration at 4 h,"[1]; 700 mg/kg, 700 mg/kg RE-024-02 by PO, 4 hr, LLOQ 1.6 nM",2.1 nM
same,% Parent AUCAll,"[2]; Cynomolgus monkey, 300 mg/kg PO, metabolite AUCall/Parent AUCall x 100",19%
same,concentration at 0.083 h,"[2]; cynomolgus monkey, in vivo, po, 300 mg/kg, Concentration of compound 1 in whole blood, cynomolgus monkeys, single oral 300 mg/kg fosmetpantotenate, 0.083 hr, sum of diastereomers, LLOQ 1.58 nM",17.2 nM
same,concentration at 0.5 h,"[2]; cynomolgus monkey, in vivo, po, 300 mg/kg, Concentration of compound 1 in whole blood, cynomolgus monkeys, single oral 300 mg/kg fosmetpantotenate, 0.5 hr, sum of diastereomers, LLOQ 1.58 nM",2480 nM
same,concentration at 4 h,"[2]; cynomolgus monkey, in vivo, po, 300 mg/kg, Concentration of compound 1 in whole blood, cynomolgus monkeys, single oral 300 mg/kg fosmetpantotenate, 4 hr, sum of diastereomers, LLOQ 1.58 nM",54.6 nM
same,concentration at 8 h,"[2]; cynomolgus monkey, in vivo, po, 300 mg/kg, Concentration of compound 1 in whole blood, cynomolgus monkeys, single oral 300 mg/kg fosmetpantotenate, 8 hr, sum of diastereomers, LLOQ 1.58 nM",7.89 nM
same,Concentration of compound 1 in whole blood,"[2]; cynomolgus monkeys, single oral 300 mg/kg fosmetpantotenate, 0.083 hr, sum of diastereomers, LLOQ 1.58 nM, 300 mg/kg",11.28 nM
same,Concentration of compound 1 in whole blood,"[2]; cynomolgus monkeys, single oral 300 mg/kg fosmetpantotenate, 0.5 hr, sum of diastereomers, LLOQ 1.58 nM, 300 mg/kg",3160.36 nM
same,Concentration of compound 1 in whole blood,"[2]; cynomolgus monkeys, single oral 300 mg/kg fosmetpantotenate, 4 hr, sum of diastereomers, LLOQ 1.58 nM, 300 mg/kg",96.23 nM
same,Concentration of compound 1 in whole blood,"[2]; cynomolgus monkeys, single oral 300 mg/kg fosmetpantotenate, 8 hr, sum of diastereomers, LLOQ 1.58 nM, 300 mg/kg",4.57 nM
same,% Parent AUCAll,[3]; 300 mg/kg PO,39%
same,% Parent AUCAll,[3]; 700 mg/kg PO,22%
same,Whole Blood Conc. of compound 1,"[3]; single 100 mg/kg RE-024-02 PO, time 0.5, LLOQ 0.60 ng/mL",BQL
same,Whole Blood Conc. of compound 1,"[3]; single 100 mg/kg RE-024-02 PO, time 0.5, LLOQ 1.58 nM",BQL
same,Whole Blood Conc. of compound 1,"[3]; single 100 mg/kg RE-024-02 PO, time 1, LLOQ 0.60 ng/mL",BQL
same,Whole Blood Conc. of compound 1,"[3]; single 100 mg/kg RE-024-02 PO, time 1, LLOQ 1.58 nM",BQL
same,Whole Blood Conc. of compound 1,"[3]; single 100 mg/kg RE-024-02 PO, time 2, LLOQ 0.60 ng/mL",BQL
same,Whole Blood Conc. of compound 1,"[3]; single 100 mg/kg RE-024-02 PO, time 2, LLOQ 1.58 nM",BQL
same,Whole Blood Conc. of compound 1,"[3]; single 100 mg/kg RE-024-02 PO, time 4, LLOQ 0.60 ng/mL",BQL
same,Whole Blood Conc. of compound 1,"[3]; single 100 mg/kg RE-024-02 PO, time 4, LLOQ 1.58 nM",BQL
same,Whole Blood Conc. of compound 1,"[3]; single 100 mg/kg RE-024-02 PO, time 8, LLOQ 0.60 ng/mL",BQL
same,Whole Blood Conc. of compound 1,"[3]; single 100 mg/kg RE-024-02 PO, time 8, LLOQ 1.58 nM",BQL
same,Whole Blood Conc. of compound 1,"[3]; single 300 mg/kg RE-024-02 PO, time 0.33, LLOQ 0.60 ng/mL, 300 mg/kg",41.34 ng/mL and 21.6 ng/mL
same,Whole Blood Conc. of compound 1,"[3]; single 300 mg/kg RE-024-02 PO, time 0.33, LLOQ 1.58 nM, 300 mg/kg",108.7 nM and 56.79 nM
same,Whole Blood Conc. of compound 1,"[3]; single 300 mg/kg RE-024-02 PO, time 2, LLOQ 0.60 ng/mL",BQL
same,Whole Blood Conc. of compound 1,"[3]; single 300 mg/kg RE-024-02 PO, time 2, LLOQ 1.58 nM",BQL
same,Whole Blood Conc. of compound 1,"[3]; single 300 mg/kg RE-024-02 PO, time 4, LLOQ 0.60 ng/mL",BQL
same,Whole Blood Conc. of compound 1,"[3]; single 300 mg/kg RE-024-02 PO, time 4, LLOQ 1.58 nM",BQL
same,Whole Blood Conc. of compound 1,"[3]; single 300 mg/kg RE-024-02 PO, time 8, LLOQ 0.60 ng/mL",BQL
same,Whole Blood Conc. of compound 1,"[3]; single 300 mg/kg RE-024-02 PO, time 8, LLOQ 1.58 nM",BQL
same,Whole Blood Conc. of compound 1,"[3]; single 700 mg/kg RE-024-02 PO, time 8, LLOQ 0.60 ng/mL",BQL
same,Whole Blood Conc. of compound 1,"[3]; single 700 mg/kg RE-024-02 PO, time 8, LLOQ 1.58 nM",BQL
same,concentration at 0.167 h,"[3]; 100 mg/kg, single 100 mg/kg RE-024-02 PO, time 0.167, LLOQ 0.60 ng/mL",3.88 ng/mL
same,concentration at 0.167 h,"[3]; 100 mg/kg, single 100 mg/kg RE-024-02 PO, time 0.167, LLOQ 1.58 nM",10.2 nM
same,concentration at 0.33 h,"[3]; 100 mg/kg, single 100 mg/kg RE-024-02 PO, time 0.33, LLOQ 0.60 ng/mL",1.21 ng/mL
same,concentration at 0.33 h,"[3]; 100 mg/kg, single 100 mg/kg RE-024-02 PO, time 0.33, LLOQ 1.58 nM",3.18 nM
same,concentration at 0.33 h,"[3]; 300 mg/kg, single 300 mg/kg RE-024-02 PO, time 0.33, LLOQ 0.60 ng/mL",22.6 ng/mL
same,concentration at 0.33 h,"[3]; 300 mg/kg, single 300 mg/kg RE-024-02 PO, time 0.33, LLOQ 1.58 nM",59.3 nM
